{"source": "patent US20160137714A1", "about": "(Thrasos Innovation, Inc., priority 2014, published 2016)", "test": "Ex-vivo plasma stability", "format": "in vitro ADME, mouse or rat", "details": "for remaining at 1 h / remaining at 2 h: fresh plasma 37° C., 1 μM; for remaining at 1 h: 60 min, read-out: Percent remaining 60 min; for remaining at 2 h: 120 min, read-out: Percent remaining 120 min; for stability toward plasma proteolytic cleavage: versus THR-123, rat plasma (FIGS. 3 and 4)", "procedure": "Test article is added to fresh mouse or rat plasma at a final in-vial concentration of 1 μM. The peptide is incubated in a water bath at 37° C. over a time course that included the following points (in minutes): 0, 15, 30, 60, 120, 240, and 1440. After the incubation time is completed, a 50 μL aliquot of plasma is removed and proteins are precipitated using a solution containing internal standard (THR-123 at 150 ng/mL) in methanol with 0.5% acetic acid (v/v). The samples are centrifuged at 13,000 RPM for 5 minutes, and a 100 μL aliquot of supernatant is removed and transferred to a 96-well plate containing 200 μL of reconstitution solution (Water/MeOH/Acetic Acid/TFA, 60/40/0.2/0.05, v/v/v/v). A calibration curve and quality control (QC) samples are prepared in parallel in the same manner as the incubation samples. The calibration range for this assay is from 0.02 to 2.0 μM in rat or mouse plasma. The extracted calibrants, QC, and incubation samples are injected onto an AB SCIEX API 2000 LC-MS/MS system. Chromatographic separation is performed using a reversed-phase C18 HPLC column (Ace-3 C18, 30×2.1 mm, 3 μm). The solvent system consists of Milli-Q water, acetonitrile and formic acid. Analyte and internal standard are detected using the multiple reaction monitoring (MRM) scan mode. Calibration curves are generated by using a weighted (1/concentration) quadratic regression analysis of the peak area ratios (analyte/internal standard) versus the nominal concentration of the calibration standards. The concentration of the analyte in the incubation samples is determined by back-calculating the peak area ratios obtained using the quadratic regression.", "note": "Positions of bridges follow the written chain, without caps; N, C: chain ends. Non-standard residues stand in square brackets, D forms with d. Residues, ends and D or L forms follow the SMILES beside them. NMeR = CN[C@@H](CCCNC(=N)N)C(=O)O", "data": [{"smiles": "CC(C)C[C@@H]1NC(=O)[C@H](C(C)C)NC(=O)[C@H](CO)NC(=O)[C@H](CO)NC(=O)[C@H](CO)NC(=O)[C@H](CC(N)=O)NC(=O)[C@H](CC(=O)O)NC(=O)[C@H](Cc2ccc(O)cc2)NC(=O)[C@H](Cc2ccc(O)cc2)NC(=O)[C@@H](N)CSSC[C@@H](C(=O)N[C@@H](CCCCN)C(=O)N[C@@H](CCCNC(=N)N)C(=O)N[C@@H](Cc2ccc(O)cc2)C(=O)N[C@@H](CCCNC(=N)N)C(=O)N[C@@H](CO)C(=O)O)NC1=O", "note": "[GPR-259, Cys-Tyr-Tyr-Asp-Asn-Ser-Ser-Ser-Val-Leu-Cys-Lys-Arg-Tyr-Arg-Ser] (H-CYYDNSSSVLCKRYRS-OH; disulfide 1-11)", "values": [{"measurement": "remaining at 1 h", "value": 4, "unit": "%"}, {"measurement": "remaining at 2 h", "value": 2.5, "unit": "%"}]}, {"smiles": "CC(C)C[C@@H]1NC(=O)[C@H](C(C)C)NC(=O)[C@H](CO)NC(=O)[C@H](CO)NC(=O)[C@H](CO)NC(=O)[C@H](CC(=O)O)NC(=O)[C@H](CC(=O)O)NC(=O)[C@H](Cc2ccc(O)cc2)NC(=O)[C@H](Cc2ccc(O)cc2)NC(=O)[C@@H](N)CSSC[C@@H](C(=O)N[C@@H](CCCCN)C(=O)N[C@@H](CCCCN)C(=O)N[C@@H](Cc2ccc(O)cc2)C(=O)N[C@@H](CCCNC(=N)N)C(=O)N[C@@H](CO)C(=O)O)NC1=O", "note": "[GPR-267, Cys-Tyr-Tyr-Asp-Asp-Ser-Ser-Ser-Val-Leu-Cys-Lys-Lys-Tyr-Arg-Ser] (H-CYYDDSSSVLCKKYRS-OH; disulfide 1-11)", "values": [{"measurement": "remaining at 1 h", "value": 1.5, "unit": "%"}, {"measurement": "remaining at 2 h", "value": 0, "unit": "%"}]}, {"smiles": "CC(C)C[C@@H]1NC(=O)[C@H](C(C)C)NC(=O)[C@H](CO)NC(=O)[C@H](CO)NC(=O)[C@H](CO)NC(=O)[C@H](CC(N)=O)NC(=O)[C@H](CC(=O)O)NC(=O)[C@H](Cc2ccc(O)cc2)NC(=O)[C@H](Cc2ccc(O)cc2)NC(=O)[C@@H](N)CSSC[C@@H](C(=O)N[C@@H](CCCCN)C(=O)N[C@@H](CCCCN)C(=O)N[C@@H](Cc2ccc(O)cc2)C(=O)N[C@@H](CCCNC(=N)N)C(=O)N[C@@H](CO)C(=O)O)NC1=O", "note": "[GPR-269, Cys-Tyr-Tyr-Asp-Asn-Ser-Ser-Ser-Val-Leu-Cys-Lys-Lys-Tyr-Arg-Ser] (H-CYYDNSSSVLCKKYRS-OH; disulfide 1-11)", "values": [{"measurement": "remaining at 1 h", "value": 9.9, "unit": "%"}, {"measurement": "remaining at 2 h", "value": 6.8, "unit": "%"}]}, {"smiles": "CC(C)C[C@@H]1NC(=O)[C@H](C(C)C)NC(=O)[C@H](CO)NC(=O)[C@H](CO)NC(=O)[C@H](CO)NC(=O)[C@H](CC(N)=O)NC(=O)[C@H](CC(=O)O)NC(=O)[C@H](Cc2ccc(O)cc2)NC(=O)[C@H](Cc2ccc(O)cc2)NC(=O)[C@@H](N)CSSC[C@@H](C(=O)N[C@@H](CCCCN)C(=O)N[C@@H](CCCNC(=N)N)C(=O)N[C@H](Cc2ccc(O)cc2)C(=O)N[C@@H](CCCNC(=N)N)C(=O)N[C@@H](CO)C(=O)O)NC1=O", "note": "[GPR-279, Cys-Tyr-Tyr-Asp-Asn-Ser-Ser-Ser-Val-Leu-Cys-Lys-Arg-D-tyr-Arg-Ser] (H-CYYDNSSSVLCKR[dY]RS-OH; disulfide 1-11)", "values": [{"measurement": "remaining at 1 h", "value": 89.1, "unit": "%"}, {"measurement": "remaining at 2 h", "value": 77.8, "unit": "%"}]}, {"smiles": "CC(C)C[C@@H]1NC(=O)[C@H](C(C)C)NC(=O)[C@H](CC(N)=O)NC(=O)[C@H](CO)NC(=O)[C@H](CO)NC(=O)[C@H](CC(=O)O)NC(=O)[C@H](CC(=O)O)NC(=O)[C@H](Cc2ccccc2)NC(=O)[C@H](Cc2ccc(O)cc2)NC(=O)[C@@H](N)CSSC[C@@H](C(=O)N[C@@H](CCCCN)C(=O)N[C@@H](CCCNC(=N)N)C(=O)N[C@@H](Cc2ccc(O)cc2)C(=O)N[C@@H](CCCNC(=N)N)C(=O)N[C@@H](CO)C(=O)O)NC1=O", "note": "[GPR-293, Cys-Tyr-Phe-Asp-Asp-Ser-Ser-Asn-Val-Leu-Cys-Lys-Arg-Tyr-Arg-Ser] (H-CYFDDSSNVLCKRYRS-OH; disulfide 1-11)", "values": [{"measurement": "remaining at 1 h", "value": 3.5, "unit": "%"}, {"measurement": "remaining at 2 h", "value": 1.6, "unit": "%"}]}, {"smiles": "CC(C)C[C@@H]1NC(=O)[C@H](C(C)C)NC(=O)[C@H](CO)NC(=O)[C@H](CO)NC(=O)[C@H](CO)NC(=O)[C@H](CC(=O)O)NC(=O)[C@H](CC(=O)O)NC(=O)[C@H](Cc2ccc(O)cc2)NC(=O)[C@H](Cc2ccc(O)cc2)NC(=O)[C@@H](N)CSSC[C@@H](C(=O)N[C@@H](CCCCN)C(=O)N[C@@H](CCCCN)C(=O)N[C@H](Cc2ccc(O)cc2)C(=O)N[C@@H](CCCNC(=N)N)C(=O)N[C@@H](CO)C(=O)O)NC1=O", "note": "[GPR-295, Cys-Tyr-Tyr-Asp-Asp-Ser-Ser-Ser-Val-Leu-Cys-Lys-Lys-D-tyr-Arg-Ser] (H-CYYDDSSSVLCKK[dY]RS-OH; disulfide 1-11)", "values": [{"measurement": "remaining at 1 h", "value": 92.2, "unit": "%"}, {"measurement": "remaining at 2 h", "value": 94.7, "unit": "%"}]}, {"smiles": "CC(C)C[C@@H]1NC(=O)[C@H](C(C)C)NC(=O)[C@H](CO)NC(=O)[C@H](CO)NC(=O)[C@H](CO)NC(=O)[C@H](CC(N)=O)NC(=O)[C@H](CC(=O)O)NC(=O)[C@H](Cc2ccc(O)cc2)NC(=O)[C@H](Cc2ccc(O)cc2)NC(=O)[C@@H](N)CSSC[C@@H](C(=O)N[C@@H](CCCCN)C(=O)N[C@@H](CCCCN)C(=O)N[C@H](Cc2ccc(O)cc2)C(=O)N[C@@H](CCCNC(=N)N)C(=O)N[C@@H](CO)C(=O)O)NC1=O", "note": "[GPR-296, Cys-Tyr-Tyr-Asp-Asn-Ser-Ser-Ser-Val-Leu-Cys-Lys-Lys-D-tyr-Arg-Ser] (H-CYYDNSSSVLCKK[dY]RS-OH; disulfide 1-11)", "values": [{"measurement": "remaining at 1 h", "value": 97.5, "unit": "%"}, {"measurement": "remaining at 2 h", "value": 86.4, "unit": "%"}]}, {"smiles": "CC(C)C[C@@H]1NC(=O)[C@H](C(C)C)NC(=O)[C@H](CC(N)=O)NC(=O)[C@H](CO)NC(=O)[C@H](CO)NC(=O)[C@H](CC(=O)O)NC(=O)[C@H](CC(=O)O)NC(=O)[C@H](Cc2ccccc2)NC(=O)[C@H](Cc2ccc(O)cc2)NC(=O)[C@@H](N)CSSC[C@@H](C(=O)N[C@@H](CCCCN)C(=O)N[C@H](CCCCN)C(=O)N[C@@H](Cc2ccc(O)cc2)C(=O)N[C@@H](CCCNC(=N)N)C(=O)N[C@@H](CO)C(=O)O)NC1=O", "note": "[GPR-388, Cys-Tyr-Phe-Asp-Asp-Ser-Ser-Asn-Val-Leu-Cys-Lys-(D)lys-Tyr-Arg-Ser] (H-CYFDDSSNVLCK[dK]YRS-OH; disulfide 1-11)", "values": [{"measurement": "remaining at 1 h", "value": 77.6, "unit": "%"}, {"measurement": "remaining at 2 h", "value": 64.2, "unit": "%"}, {"measurement": "stability toward plasma proteolytic cleavage", "value": "enhanced"}]}, {"smiles": "CC(C)C[C@@H]1NC(=O)[C@H](C(C)C)NC(=O)[C@H](CC(N)=O)NC(=O)[C@H](CO)NC(=O)[C@H](CO)NC(=O)[C@H](CC(=O)O)NC(=O)[C@H](CC(=O)O)NC(=O)[C@H](Cc2ccccc2)NC(=O)[C@H](Cc2ccc(O)cc2)NC(=O)[C@@H](N)CSSC[C@@H](C(=O)N[C@@H](CCCCN)C(=O)N[C@@H](CCCCN)C(=O)N[C@@H](Cc2ccc(O)cc2)C(=O)N[C@H](CCCNC(=N)N)C(=O)N[C@@H](CO)C(=O)O)NC1=O", "note": "[GPR-389, Cys-Tyr-Phe-Asp-Asp-Ser-Ser-Asn-Val-Leu-Cys-Lys-Lys-Tyr-D-arg-Ser] (H-CYFDDSSNVLCKKY[dR]S-OH; disulfide 1-11)", "values": [{"measurement": "remaining at 1 h", "value": 58.5, "unit": "%"}, {"measurement": "remaining at 2 h", "value": 46.1, "unit": "%"}, {"measurement": "stability toward plasma proteolytic cleavage", "value": "enhanced"}]}, {"smiles": "CC(C)C[C@@H]1NC(=O)[C@H](C(C)C)NC(=O)[C@H](CC(N)=O)NC(=O)[C@H](CO)NC(=O)[C@H](CO)NC(=O)[C@H](CC(=O)O)NC(=O)[C@H](CC(=O)O)NC(=O)[C@H](Cc2ccccc2)NC(=O)[C@H](Cc2ccc(O)cc2)NC(=O)[C@@H](N)CSSC[C@@H](C(=O)N[C@@H](CCCCN)C(=O)N[C@@H](CCCCN)C(=O)N[C@@H](Cc2ccc(O)cc2)C(=O)N(C)[C@@H](CCCNC(=N)N)C(=O)N[C@@H](CO)C(=O)O)NC1=O", "note": "[GPR-396, Cys-Tyr-Phe-Asp-Asp-Ser-Ser-Asn-Val-Leu-Cys-Lys-Lys-Tyr-(Na-Me)Arg-Ser] (H-CYFDDSSNVLCKKY[NMeR]S-OH; disulfide 1-11)", "values": [{"measurement": "remaining at 1 h", "value": 91, "unit": "%"}, {"measurement": "remaining at 2 h", "value": 82.4, "unit": "%"}, {"measurement": "stability toward plasma proteolytic cleavage", "value": "enhanced"}]}, {"smiles": "CC(C)C[C@@H]1NC(=O)[C@H](C(C)C)NC(=O)[C@H](CC(N)=O)NC(=O)[C@H](CO)NC(=O)[C@H](CO)NC(=O)[C@H](CC(=O)O)NC(=O)[C@H](CC(=O)O)NC(=O)[C@H](Cc2ccccc2)NC(=O)[C@H](Cc2ccc(O)cc2)NC(=O)[C@@H](N)CSSC[C@@H](C(=O)N[C@@H](CCCCN)C(=O)N[C@@H](CCCNC(=N)N)C(=O)N[C@H](Cc2ccc(O)cc2)C(=O)N[C@@H](CCCNC(=N)N)C(=O)N[C@@H](CO)C(=O)O)NC1=O", "note": "[GPR-397, Cys-Tyr-Phe-Asp-Asp-Ser-Ser-Asn-Val-Leu-Cys-Lys-Arg-D-tyr-Arg-Ser] (H-CYFDDSSNVLCKR[dY]RS-OH; disulfide 1-11)", "values": [{"measurement": "remaining at 1 h", "value": 92, "unit": "%"}, {"measurement": "remaining at 2 h", "value": 89.3, "unit": "%"}]}, {"smiles": "CC(C)C[C@@H]1NC(=O)[C@H](C(C)C)NC(=O)[C@H](CO)NC(=O)[C@H](CO)NC(=O)[C@H](CO)NC(=O)[C@H](CC(N)=O)NC(=O)[C@H](CC(=O)O)NC(=O)[C@H](Cc2ccc(O)cc2)NC(=O)[C@H](Cc2ccc(O)cc2)NC(=O)[C@@H](N)CSSC[C@@H](C(=O)N[C@@H](CCCCN)C(=O)N[C@@H](CCCNC(=N)N)C(=O)N[C@@H](Cc2ccc(O)cc2)C(=O)N(C)[C@@H](CCCNC(=N)N)C(=O)N[C@@H](CO)C(=O)O)NC1=O", "note": "[GPR-398, Cys-Tyr-Tyr-Asp-Asn-Ser-Ser-Ser-Val-Leu-Cys-Lys-Arg-Tyr-(Nα-Me)Arg-Ser] (H-CYYDNSSSVLCKRY[NMeR]S-OH; disulfide 1-11)", "values": [{"measurement": "remaining at 1 h", "value": 79.2, "unit": "%"}, {"measurement": "remaining at 2 h", "value": 68.1, "unit": "%"}]}]}
